Reference: ChEMBL document CHEMBL1201862, “PubChem BioAssay data set” (2004)
Activity calls are given as the source filed them.

Assays:
[1] = target: T1, Replicative DNA helicase DnaB (Mycobacterium tuberculosis, UniProt P9WMR3); test: DnaB intein splicing inhibitors, dose response, biochemical, cell-free fluorescence (AID 449749); assay type: functional
T1 sequence (P9WMR3 whole entry): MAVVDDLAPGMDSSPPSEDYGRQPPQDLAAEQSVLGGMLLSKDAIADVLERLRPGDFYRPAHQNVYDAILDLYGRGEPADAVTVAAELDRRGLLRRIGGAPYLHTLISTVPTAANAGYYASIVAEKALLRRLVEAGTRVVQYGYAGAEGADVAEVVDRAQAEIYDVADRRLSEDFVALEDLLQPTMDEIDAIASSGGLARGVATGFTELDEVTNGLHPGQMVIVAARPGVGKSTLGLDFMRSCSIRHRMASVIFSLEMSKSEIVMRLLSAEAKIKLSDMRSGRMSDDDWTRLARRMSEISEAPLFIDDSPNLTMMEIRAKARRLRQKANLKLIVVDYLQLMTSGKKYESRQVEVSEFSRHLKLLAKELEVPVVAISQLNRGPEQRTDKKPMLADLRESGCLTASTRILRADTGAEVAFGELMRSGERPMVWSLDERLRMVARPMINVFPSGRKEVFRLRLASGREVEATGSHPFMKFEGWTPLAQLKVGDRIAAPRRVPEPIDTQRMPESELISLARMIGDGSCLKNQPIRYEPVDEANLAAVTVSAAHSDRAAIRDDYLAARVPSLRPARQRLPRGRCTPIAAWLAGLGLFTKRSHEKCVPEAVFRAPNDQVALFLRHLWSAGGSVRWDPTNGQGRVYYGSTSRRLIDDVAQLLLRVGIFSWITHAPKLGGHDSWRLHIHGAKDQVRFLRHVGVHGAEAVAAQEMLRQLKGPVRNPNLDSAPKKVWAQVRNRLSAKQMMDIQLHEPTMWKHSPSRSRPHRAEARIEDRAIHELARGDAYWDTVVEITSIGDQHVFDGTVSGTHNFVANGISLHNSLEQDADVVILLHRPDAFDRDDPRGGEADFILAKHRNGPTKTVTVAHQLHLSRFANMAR

[2] = target: Peroxisome proliferator-activated receptor gamma/Nuclear receptor coactivator 3 (Homo sapiens, UniProt P37231); test: (§1) TR-FRET dose response biochemical High Throughput Screening assay for agonists of the steroid receptor coactivator 3 (SRC-3) recruitment by the peroxisome proliferator-activated receptor gamma (PPAR gamma): non-selective agonists. [Related pubchem assays: 1301 (Confirmation screen.), 1048 (Primary screen.)]; assay type: functional
Sequence of Peroxisome proliferator-activated receptor gamma/Nuclear receptor coactivator 3 (P37231 whole entry): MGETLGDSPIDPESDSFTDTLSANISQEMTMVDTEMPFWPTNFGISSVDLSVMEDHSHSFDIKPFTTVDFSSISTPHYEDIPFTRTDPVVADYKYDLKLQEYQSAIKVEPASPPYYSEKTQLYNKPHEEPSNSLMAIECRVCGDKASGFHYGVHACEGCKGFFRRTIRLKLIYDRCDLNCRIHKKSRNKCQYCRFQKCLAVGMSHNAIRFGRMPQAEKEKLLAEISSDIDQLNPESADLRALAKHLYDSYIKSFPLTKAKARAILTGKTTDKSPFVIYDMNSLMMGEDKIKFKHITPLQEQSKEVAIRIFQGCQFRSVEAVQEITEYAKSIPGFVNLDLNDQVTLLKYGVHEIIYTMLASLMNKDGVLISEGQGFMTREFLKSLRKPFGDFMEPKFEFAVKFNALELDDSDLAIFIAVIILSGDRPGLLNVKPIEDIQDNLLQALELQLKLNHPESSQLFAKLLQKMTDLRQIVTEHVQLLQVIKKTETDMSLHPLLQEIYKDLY
Sequence of Peroxisome proliferator-activated receptor gamma/Nuclear receptor coactivator 3 (Q9Y6Q9 whole entry, further chain): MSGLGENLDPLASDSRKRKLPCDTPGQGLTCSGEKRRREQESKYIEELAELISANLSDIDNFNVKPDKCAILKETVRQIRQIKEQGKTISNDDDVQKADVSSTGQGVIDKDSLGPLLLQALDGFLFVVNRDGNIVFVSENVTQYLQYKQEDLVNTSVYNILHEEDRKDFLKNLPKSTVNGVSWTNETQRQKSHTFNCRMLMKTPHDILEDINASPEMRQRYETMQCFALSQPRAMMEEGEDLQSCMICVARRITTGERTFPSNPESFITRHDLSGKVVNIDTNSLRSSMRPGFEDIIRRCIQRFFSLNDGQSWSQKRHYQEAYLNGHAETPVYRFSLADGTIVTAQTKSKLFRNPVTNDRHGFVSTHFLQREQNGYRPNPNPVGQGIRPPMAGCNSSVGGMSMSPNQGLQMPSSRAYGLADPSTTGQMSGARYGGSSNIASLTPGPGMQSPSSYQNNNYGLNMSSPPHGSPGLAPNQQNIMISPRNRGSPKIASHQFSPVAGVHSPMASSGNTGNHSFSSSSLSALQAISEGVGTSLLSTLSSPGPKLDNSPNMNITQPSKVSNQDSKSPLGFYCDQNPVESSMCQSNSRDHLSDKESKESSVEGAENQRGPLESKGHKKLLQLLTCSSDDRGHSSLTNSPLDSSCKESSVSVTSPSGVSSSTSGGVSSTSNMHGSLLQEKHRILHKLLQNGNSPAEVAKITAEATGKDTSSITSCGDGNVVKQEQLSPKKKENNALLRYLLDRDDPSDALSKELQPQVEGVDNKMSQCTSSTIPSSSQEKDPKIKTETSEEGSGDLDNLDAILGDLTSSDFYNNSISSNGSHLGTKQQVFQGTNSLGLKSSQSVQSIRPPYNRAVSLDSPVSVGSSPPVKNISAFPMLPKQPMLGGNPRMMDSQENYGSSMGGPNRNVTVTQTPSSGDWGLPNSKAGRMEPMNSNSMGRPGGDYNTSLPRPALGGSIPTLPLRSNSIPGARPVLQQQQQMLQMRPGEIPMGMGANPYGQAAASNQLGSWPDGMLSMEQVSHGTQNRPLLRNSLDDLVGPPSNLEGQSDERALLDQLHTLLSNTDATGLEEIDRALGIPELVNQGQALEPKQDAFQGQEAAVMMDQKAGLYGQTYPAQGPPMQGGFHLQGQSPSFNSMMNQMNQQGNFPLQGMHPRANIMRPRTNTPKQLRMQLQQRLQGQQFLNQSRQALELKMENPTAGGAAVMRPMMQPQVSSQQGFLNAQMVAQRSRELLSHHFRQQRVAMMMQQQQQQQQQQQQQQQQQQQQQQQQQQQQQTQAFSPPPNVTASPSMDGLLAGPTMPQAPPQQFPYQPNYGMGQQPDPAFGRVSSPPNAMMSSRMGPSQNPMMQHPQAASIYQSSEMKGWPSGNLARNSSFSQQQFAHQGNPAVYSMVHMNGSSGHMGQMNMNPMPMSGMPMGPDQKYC

[3] = target: Peroxisome proliferator-activated receptor gamma/Nuclear receptor coactivator 1 (Homo sapiens, UniProt P37231); test: as §1, with “1 (SRC-1)” for “3 (SRC-3)”, “assays (depositor defined):AID1300, AID1808, AID504735, AID631]” for “assays: 1301 (Confirmation screen.), 1048 (Primary screen.)]”; assay type: protein assay
Sequence of Peroxisome proliferator-activated receptor gamma/Nuclear receptor coactivator 1 (P37231 whole entry): as the sequence (P37231 whole entry) above
Sequence of Peroxisome proliferator-activated receptor gamma/Nuclear receptor coactivator 1 (Q15788 whole entry, further chain): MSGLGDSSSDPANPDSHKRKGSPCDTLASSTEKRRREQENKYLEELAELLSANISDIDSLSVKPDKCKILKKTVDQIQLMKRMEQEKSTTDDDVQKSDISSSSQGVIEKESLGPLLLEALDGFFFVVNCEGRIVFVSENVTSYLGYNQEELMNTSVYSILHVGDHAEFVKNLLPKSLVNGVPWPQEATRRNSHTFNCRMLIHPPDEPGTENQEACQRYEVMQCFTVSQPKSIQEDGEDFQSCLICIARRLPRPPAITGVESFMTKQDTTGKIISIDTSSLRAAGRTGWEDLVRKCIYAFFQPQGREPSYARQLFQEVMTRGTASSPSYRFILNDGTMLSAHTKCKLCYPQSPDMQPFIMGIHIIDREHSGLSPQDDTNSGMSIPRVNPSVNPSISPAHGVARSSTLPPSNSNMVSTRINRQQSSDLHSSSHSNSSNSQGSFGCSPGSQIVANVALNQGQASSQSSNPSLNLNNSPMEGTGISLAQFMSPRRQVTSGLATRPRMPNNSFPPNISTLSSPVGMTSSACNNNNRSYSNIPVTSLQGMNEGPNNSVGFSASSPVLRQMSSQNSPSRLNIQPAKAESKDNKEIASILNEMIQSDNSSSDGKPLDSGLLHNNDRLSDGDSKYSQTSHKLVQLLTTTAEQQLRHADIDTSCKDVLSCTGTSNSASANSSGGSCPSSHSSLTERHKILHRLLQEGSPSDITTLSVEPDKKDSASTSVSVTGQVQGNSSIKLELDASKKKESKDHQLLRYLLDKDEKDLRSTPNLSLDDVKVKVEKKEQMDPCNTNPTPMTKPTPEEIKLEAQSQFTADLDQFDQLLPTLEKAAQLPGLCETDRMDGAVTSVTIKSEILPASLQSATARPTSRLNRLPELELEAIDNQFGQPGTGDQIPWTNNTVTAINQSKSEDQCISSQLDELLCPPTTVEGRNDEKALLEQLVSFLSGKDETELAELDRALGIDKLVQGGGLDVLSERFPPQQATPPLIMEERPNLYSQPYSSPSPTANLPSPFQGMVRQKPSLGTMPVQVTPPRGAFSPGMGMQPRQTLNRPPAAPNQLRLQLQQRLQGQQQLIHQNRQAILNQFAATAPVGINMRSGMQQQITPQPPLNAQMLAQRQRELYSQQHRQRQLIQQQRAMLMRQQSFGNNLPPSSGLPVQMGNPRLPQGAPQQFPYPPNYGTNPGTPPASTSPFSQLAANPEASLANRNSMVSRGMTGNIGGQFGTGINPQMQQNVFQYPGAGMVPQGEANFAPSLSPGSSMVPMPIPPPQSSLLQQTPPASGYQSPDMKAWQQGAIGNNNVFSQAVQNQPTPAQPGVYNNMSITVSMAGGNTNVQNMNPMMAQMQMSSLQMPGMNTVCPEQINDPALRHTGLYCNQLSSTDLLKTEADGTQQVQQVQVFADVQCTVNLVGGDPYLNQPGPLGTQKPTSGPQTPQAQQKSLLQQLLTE

[4] = target: Peroxisome proliferator-activated receptor gamma/Nuclear receptor coactivator 2 (Homo sapiens, UniProt P37231); test: TR-FRET dose response biochemical High Throughput Screening assay for agonists of the steroid receptor coactivator 2 (SRC-2) recruitment by the peroxisome proliferator-activated receptor gamma (PPAR gamma): non-selective agonists. [Related pubchem assays: 1297, 1032 ]; assay type: functional
Protein RecA = target: T2, Protein RecA (Mycobacterium tuberculosis, UniProt P9WHJ3); test: Fluorescence Cell-Free Homogeneous Dose Retest to Identify Inhibitors of RecA-Intein Splicing Activity. [Related pubchem assays (depositor defined):AID2097, AID2223, AID489010, AID492950]; assay type: functional
T2 sequence (P9WHJ3 whole entry): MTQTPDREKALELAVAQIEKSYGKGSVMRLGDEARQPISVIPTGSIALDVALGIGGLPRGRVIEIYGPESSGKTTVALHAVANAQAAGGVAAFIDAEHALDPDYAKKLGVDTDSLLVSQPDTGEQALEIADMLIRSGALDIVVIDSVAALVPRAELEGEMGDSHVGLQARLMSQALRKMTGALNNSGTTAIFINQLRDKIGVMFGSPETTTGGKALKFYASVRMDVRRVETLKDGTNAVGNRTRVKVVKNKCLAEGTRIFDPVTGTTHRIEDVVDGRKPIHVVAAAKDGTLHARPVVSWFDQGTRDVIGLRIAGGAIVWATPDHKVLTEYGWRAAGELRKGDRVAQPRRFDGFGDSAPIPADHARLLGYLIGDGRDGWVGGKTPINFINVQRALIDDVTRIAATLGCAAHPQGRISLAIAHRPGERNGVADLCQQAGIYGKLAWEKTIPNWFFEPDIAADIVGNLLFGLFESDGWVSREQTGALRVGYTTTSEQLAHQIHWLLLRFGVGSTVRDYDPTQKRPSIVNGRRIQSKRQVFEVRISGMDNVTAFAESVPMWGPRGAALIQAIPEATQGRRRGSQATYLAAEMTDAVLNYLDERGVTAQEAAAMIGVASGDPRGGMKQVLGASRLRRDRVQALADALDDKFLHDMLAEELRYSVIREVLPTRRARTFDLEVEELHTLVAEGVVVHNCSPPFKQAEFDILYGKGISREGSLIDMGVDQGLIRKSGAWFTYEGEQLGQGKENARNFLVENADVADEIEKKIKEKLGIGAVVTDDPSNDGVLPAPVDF

[5] = cytotoxicity toward DRD oncogenic fibroblasts, dose response, cell-based, non-viral oncogenic, luminescence (AID 1934); assay type: functional; settings: Homo sapiens
BJ [6] = test: cells; assay type: functional, cell-based; settings: Homo sapiens
[7] = target: T3, Microphthalmia-associated transcription factor (Homo sapiens, UniProt O75030); test: TRPM1 promoter luciferase signal decrease, dose response, MITF inhibitor project, cell-based, SK-MEL-5, cherry-picked, set 3 (AID 493073); assay type: functional
T3 sequence (O75030 whole entry): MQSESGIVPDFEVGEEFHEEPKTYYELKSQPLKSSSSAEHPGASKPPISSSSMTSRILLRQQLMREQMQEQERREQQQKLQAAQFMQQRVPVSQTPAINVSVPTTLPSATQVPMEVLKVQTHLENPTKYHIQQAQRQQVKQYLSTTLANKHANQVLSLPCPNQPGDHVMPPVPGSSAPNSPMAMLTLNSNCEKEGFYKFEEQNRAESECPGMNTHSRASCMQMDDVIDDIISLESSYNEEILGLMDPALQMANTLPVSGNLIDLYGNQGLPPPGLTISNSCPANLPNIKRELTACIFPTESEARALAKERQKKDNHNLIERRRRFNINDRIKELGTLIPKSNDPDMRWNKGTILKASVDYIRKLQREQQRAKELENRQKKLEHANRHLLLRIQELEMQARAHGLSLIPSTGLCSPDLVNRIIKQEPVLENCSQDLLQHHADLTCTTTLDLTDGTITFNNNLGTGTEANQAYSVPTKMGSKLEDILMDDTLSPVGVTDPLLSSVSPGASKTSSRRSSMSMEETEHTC

BJ [8] = test: cytotoxicity toward BJ-TERT fibroblasts, dose response, cell-based, RAS-independent, luminescence (AID 1933); assay type: functional; settings: Homo sapiens
BJ [9] = test: cytotoxicity toward BJ-TERT-LT-ST fibroblasts, dose response, cell-based, RAS-independent, luminescence (AID 1935); assay type: functional; settings: Homo sapiens;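 further: BJ fibroblasts immortalized with TERT plus LT and ST oncogenes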
A-375 = test: MITF: Counter assay: A375 proliferation Measured in Cell-Based System Using Plate Reader - 2084-03_Inhibitor_Dose_DryPowder_Activity. [Related pubchem assays (depositor defined):AID488944]; assay type: functional; settings: Homo sapiens
[10] = target: T4, High affinity choline transporter 1 (Homo sapiens, UniProt Q9GZV3); test: CHT inhibitors, dose response, cell-based, 5-point CRC, membrane potential dye (AID 504840); assay type: functional
T4 sequence (Q9GZV3 whole entry): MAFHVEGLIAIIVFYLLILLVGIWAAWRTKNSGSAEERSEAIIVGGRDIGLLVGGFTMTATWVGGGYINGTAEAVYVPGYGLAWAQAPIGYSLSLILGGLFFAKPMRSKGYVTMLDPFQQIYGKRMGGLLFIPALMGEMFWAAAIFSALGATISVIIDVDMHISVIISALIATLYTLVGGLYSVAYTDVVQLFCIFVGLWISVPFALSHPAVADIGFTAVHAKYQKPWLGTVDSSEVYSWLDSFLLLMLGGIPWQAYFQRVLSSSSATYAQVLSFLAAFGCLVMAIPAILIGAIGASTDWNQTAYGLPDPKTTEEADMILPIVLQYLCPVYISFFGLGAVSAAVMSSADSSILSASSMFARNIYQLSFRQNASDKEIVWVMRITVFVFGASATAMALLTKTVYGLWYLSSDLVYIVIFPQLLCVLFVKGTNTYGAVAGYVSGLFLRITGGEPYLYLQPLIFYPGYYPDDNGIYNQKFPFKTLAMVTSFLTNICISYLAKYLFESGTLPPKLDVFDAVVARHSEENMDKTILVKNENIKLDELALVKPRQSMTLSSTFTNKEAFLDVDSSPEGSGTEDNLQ

[11] = cytotoxicity in MIN6 insulinoma cells, dose response, cytotoxicity control, cell-based, mouse insulinoma (AID 2122); assay type: functional;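 further: confirmatory high-throughput counterscreen run to flag cytotoxic compounds; mouse MIN-6 beta cells carrying an insulin promoter eGFP reporter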
[12] = insulin promoter down-regulators in MIN6 cells, imaging, high-content screening, mouse beta cells (AID 1628); assay type: functional
[13] = target: T5, Corticotropin-releasing factor receptor 2/Corticotropin-releasing factor-binding protein (Homo sapiens, UniProt P24387+Q13324); test: Dose Response confirmation of uHTS hits for small molecule antagonists of the CRF-binding protein and CRF-R2 receptor complex.; assay type: functional; settings: read-out: IC50_Mean
T5 sequence (Q13324 whole entry): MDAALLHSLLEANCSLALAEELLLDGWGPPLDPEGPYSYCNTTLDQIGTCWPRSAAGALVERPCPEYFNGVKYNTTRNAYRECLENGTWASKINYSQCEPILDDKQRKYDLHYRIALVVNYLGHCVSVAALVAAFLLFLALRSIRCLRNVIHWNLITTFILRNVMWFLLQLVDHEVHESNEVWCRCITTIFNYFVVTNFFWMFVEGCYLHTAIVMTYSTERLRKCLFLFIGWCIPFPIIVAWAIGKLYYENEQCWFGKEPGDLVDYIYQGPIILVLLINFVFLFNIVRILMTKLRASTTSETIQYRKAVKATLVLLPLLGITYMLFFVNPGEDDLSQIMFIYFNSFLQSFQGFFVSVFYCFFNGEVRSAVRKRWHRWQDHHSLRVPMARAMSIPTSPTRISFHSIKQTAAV
T5 sequence (P24387 whole entry): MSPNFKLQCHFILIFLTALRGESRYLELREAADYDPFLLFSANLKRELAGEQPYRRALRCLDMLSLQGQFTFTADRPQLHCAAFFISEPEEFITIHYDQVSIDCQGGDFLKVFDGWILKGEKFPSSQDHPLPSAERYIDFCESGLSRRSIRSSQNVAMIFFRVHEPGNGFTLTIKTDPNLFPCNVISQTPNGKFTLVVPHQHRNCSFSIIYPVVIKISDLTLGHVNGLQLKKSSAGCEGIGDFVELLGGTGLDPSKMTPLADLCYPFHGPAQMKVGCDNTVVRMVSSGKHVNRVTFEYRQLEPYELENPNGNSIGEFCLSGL

[14] = target: T6, Heat shock factor protein 1 (Mus musculus, UniProt P38532); test: HSF1 potentiators in luciferase reporter cells, confirmation, cell-based, NIH3T3, luminescence, dose retest (AID 435004); assay type: functional;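 further: stress induced by proteasome inhibitor MG132 added 30 min after compound; luciferase reporter driven by HSF1 response element in NIH3T3 cells; actives raise luminescence as potentiators of the MG132 stress response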
T6 sequence (P38532 whole entry): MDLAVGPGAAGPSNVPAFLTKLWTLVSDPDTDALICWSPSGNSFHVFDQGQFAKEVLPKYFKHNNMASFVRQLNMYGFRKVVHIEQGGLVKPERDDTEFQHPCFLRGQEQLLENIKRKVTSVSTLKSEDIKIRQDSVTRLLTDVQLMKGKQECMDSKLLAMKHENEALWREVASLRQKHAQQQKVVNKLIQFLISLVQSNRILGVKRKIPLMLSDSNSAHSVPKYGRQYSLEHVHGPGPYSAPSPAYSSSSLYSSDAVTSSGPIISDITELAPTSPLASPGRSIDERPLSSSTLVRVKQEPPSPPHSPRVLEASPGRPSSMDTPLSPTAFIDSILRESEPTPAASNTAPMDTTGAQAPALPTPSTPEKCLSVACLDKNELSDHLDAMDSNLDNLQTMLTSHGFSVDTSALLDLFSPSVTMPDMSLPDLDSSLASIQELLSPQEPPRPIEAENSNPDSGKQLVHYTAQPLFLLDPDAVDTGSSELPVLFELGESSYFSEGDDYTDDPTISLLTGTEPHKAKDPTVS

[15] = target: T5, Corticotropin-releasing factor receptor 2/Corticotropin-releasing factor-binding protein; test: activators of CRF receptor 2 with binding protein – uHTS hits, confirmation (AID 602473); assay type: functional; settings: read-out: EC50_Mean

For `O=C(CSc1c2c(nc3cc(Cl)ccc13)CCCC2)NCc1ccco1`, the AC50 [1] was 27.9 µM (active), the EC50 [2] was > 79.4 µM (not active) and the EC50 [3] was > 79.4 µM (inactive). The EC50 [4] was > 79.4 µM (not active) and the EC50 (Protein RecA) was 7.14 µM (active).

For `COc1ccc(N(Cc2cc(O)nc3ccccc23)C(=O)CCl)cc1`, the EC50 [5] was 4.96 µM (inconclusive), the AC50 [1] was 10.3 µM (active) and the EC50 (BJ [6]) was 5.45 µM (inconclusive). For the same compound, the AC50 [7] was 10.9 µM (active), the EC50 (BJ [8]) was 1.95 µM (active) and the EC50 (BJ [9]) was 4.68 µM (active). The AC50 (A-375) was 27.1 µM (active) and the EC50 (Protein RecA) was 1.59 µM (active).

With `CC1(C)CC2CC(C)(CN2c2ncnc3ccccc23)C1` (configuration not stated) the IC50 [10] was 6.74 µM (active), the IC50 [11] was 1.16 µM (active) and the IC50 [12] was 1.7 µM (active).

With `CC(=O)C1=C(O)C(=O)N(c2nccs2)C1c1ccccc1` (configuration not stated) the IC50 [13] was > 47.1 µM (inactive), the EC50 [2] was > 79.4 µM (not active) and the EC50 [3] was 86.4 µM (inactive). The EC50 [4] was 35.4 µM (not active), the EC50 [14] was > 260 µM (inactive) and the EC50 [15] was > 53 µM (inactive).
